For assay [1], the target named is Voltage-dependent L-type calcium channel subunit alpha-1C (Rattus norvegicus, UniProt P22002). In kind it is functional.
Assay [2] concerns the target T1, Neuropeptide Y receptor type 1 (Homo sapiens, UniProt P25929).
T1 sequence (P25929 whole entry): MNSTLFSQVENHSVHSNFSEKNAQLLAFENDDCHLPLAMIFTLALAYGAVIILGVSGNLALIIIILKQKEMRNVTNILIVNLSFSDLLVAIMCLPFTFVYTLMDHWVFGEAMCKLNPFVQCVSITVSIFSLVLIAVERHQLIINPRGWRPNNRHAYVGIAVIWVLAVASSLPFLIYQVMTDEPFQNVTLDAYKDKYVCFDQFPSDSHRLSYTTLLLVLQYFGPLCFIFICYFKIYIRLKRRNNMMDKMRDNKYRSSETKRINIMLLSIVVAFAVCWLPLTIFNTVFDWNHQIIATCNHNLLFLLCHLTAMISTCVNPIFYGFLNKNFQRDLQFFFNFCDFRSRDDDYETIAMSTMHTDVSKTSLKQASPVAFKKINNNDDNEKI

The target of assay [3] is T2, Mu-type opioid receptor (Homo sapiens, UniProt P35372). Briefly: biochemical. It counts as functional.
T2 sequence (P35372 whole entry): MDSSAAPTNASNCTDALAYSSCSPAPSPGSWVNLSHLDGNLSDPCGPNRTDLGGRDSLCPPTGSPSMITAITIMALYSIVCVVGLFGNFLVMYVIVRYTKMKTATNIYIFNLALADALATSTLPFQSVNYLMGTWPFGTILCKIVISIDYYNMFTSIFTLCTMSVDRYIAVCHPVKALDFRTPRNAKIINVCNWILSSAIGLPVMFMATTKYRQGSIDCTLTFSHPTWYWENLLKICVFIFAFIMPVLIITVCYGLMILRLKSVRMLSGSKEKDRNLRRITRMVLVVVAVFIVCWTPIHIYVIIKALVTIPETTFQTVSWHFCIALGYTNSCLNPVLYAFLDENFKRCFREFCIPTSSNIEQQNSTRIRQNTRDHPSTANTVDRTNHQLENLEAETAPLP
The target in assay [4] is T3, Thromboxane A2 receptor (Homo sapiens, UniProt P21731).
T3 sequence (P21731 whole entry): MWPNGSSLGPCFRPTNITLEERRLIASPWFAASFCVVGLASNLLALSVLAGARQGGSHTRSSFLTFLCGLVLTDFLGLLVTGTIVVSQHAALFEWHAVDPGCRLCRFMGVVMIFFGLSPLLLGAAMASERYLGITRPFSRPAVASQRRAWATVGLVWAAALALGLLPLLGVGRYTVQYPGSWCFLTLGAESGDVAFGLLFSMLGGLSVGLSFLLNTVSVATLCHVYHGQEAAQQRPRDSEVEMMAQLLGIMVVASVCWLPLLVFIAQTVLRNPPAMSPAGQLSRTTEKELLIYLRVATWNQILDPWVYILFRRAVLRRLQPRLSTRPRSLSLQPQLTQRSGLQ

The target of assay [5] is T4, Alpha-1A adrenergic receptor (Homo sapiens, UniProt P35348).
T4 sequence (P35348 whole entry): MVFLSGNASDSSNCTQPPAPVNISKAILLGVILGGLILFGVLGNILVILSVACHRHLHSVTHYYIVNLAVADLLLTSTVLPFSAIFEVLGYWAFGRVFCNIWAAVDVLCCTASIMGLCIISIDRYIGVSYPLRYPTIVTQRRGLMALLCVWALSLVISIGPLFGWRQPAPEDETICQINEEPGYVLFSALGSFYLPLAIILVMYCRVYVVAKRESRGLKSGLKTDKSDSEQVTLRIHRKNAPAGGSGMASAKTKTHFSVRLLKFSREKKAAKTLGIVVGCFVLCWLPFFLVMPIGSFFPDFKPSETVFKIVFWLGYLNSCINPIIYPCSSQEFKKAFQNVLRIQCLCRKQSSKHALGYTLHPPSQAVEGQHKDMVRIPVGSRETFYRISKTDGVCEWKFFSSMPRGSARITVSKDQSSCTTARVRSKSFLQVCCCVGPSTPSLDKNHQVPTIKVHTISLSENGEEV

Assay [6] addresses T2, Mu-type opioid receptor.
Assay [7] has as its target Prothrombin (Homo sapiens, UniProt P00734). In kind it is functional.
Assay [8] has as its target T5, 5-hydroxytryptamine receptor 1A (Homo sapiens, UniProt P08908).
T5 sequence (P08908 whole entry): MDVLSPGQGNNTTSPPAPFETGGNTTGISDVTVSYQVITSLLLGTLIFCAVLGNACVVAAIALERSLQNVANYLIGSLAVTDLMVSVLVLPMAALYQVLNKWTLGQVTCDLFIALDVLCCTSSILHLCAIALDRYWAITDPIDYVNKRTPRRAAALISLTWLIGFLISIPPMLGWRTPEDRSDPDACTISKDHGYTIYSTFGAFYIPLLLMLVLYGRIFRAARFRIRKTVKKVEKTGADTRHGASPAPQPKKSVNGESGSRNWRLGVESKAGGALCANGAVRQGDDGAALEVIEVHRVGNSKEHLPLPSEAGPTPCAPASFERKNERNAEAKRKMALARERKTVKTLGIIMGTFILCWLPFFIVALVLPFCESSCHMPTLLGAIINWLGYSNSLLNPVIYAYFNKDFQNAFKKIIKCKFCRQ
Further: assay procedure not described here.

Chain of Voltage-dependent L-type calcium channel subunit alpha-1C (P22002 whole entry): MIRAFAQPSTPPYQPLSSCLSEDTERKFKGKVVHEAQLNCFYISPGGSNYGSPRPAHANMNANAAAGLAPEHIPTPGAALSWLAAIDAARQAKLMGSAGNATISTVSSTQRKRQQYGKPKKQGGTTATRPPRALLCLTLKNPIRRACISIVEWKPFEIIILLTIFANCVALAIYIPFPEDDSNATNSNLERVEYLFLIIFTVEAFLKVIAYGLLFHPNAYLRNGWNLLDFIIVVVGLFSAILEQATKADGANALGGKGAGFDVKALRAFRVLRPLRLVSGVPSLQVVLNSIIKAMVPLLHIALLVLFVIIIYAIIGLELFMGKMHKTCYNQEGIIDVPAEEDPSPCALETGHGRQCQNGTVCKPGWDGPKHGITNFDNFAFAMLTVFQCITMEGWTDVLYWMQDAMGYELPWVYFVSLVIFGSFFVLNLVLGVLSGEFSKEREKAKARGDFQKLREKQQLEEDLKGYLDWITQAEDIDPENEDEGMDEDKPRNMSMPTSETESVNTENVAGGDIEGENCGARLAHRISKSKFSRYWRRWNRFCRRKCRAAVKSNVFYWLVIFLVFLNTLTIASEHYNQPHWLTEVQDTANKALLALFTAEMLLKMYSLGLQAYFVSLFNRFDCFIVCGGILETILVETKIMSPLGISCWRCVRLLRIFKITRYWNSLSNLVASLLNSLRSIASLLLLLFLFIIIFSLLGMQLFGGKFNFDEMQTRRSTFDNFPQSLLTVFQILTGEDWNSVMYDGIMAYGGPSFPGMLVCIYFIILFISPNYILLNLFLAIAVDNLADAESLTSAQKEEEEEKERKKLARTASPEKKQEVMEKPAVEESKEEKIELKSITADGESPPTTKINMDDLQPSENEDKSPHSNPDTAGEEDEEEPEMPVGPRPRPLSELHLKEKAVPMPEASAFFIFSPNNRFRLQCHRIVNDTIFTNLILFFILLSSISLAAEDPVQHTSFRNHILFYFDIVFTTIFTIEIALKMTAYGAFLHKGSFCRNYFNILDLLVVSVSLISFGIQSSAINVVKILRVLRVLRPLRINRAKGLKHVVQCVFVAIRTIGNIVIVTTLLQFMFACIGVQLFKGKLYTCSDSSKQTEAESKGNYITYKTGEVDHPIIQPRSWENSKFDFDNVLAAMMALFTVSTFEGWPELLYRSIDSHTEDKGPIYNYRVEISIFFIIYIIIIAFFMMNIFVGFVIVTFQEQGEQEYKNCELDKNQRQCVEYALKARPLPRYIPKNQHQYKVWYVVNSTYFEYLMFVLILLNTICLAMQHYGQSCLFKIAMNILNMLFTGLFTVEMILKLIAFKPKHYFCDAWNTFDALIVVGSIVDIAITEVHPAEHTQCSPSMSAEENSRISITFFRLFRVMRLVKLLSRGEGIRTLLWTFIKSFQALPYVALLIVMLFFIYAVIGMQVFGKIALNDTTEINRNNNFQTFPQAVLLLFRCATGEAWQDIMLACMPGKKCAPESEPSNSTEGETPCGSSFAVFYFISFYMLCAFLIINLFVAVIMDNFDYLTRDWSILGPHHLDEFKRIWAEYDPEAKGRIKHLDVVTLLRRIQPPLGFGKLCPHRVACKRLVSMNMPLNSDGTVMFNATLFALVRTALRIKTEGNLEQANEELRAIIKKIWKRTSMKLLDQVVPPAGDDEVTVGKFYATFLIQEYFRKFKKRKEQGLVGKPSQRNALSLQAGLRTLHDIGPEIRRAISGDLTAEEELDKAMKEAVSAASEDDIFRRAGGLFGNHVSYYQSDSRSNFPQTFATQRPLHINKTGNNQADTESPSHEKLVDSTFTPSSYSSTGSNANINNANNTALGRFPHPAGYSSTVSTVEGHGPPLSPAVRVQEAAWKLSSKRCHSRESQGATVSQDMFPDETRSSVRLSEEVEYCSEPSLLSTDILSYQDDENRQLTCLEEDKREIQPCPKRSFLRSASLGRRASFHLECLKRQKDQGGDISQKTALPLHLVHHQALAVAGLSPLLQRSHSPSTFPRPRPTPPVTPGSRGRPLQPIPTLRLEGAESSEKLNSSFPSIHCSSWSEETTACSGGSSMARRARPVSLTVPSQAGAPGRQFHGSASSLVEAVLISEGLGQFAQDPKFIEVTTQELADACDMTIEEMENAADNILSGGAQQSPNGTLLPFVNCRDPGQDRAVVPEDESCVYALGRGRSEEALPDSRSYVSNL

`COc1ccc2c(c1)C(=O)N(CCc1ccc(S(=O)(=O)NC(=O)NC3CCCCC3)cc1)C(=O)C2(C)C` [GLIQUIDONE]: the AC50 (in general, the concentration at which the activity in the assay is half-maximal) in assay [1] is greater than 30 µM; in assay [2] it was greater than 30 µM; in assay [3], greater than 30 µM; in assay [4], 11 µM.

For `CO/N=C(\C(=O)N[C@@H]1C(=O)N2C(C(=O)[O-])=C(C[N+]3(C)CCCC3)CS[C@H]12)c1csc(N)n1`, the AC50 was greater than 30 µM in assay [5]; greater than 30 µM in assay [1]; greater than 30 µM in assay [2]; greater than 30 µM in assay [3]; greater than 30 µM in assay [4]; greater than 300 µM in assay [6].

On to `O=C(CCCCCCC(=O)Nc1ccccc1)NO` [VORINOSTAT], for which the half-maximal activity concentration (AC50) in assay [5] was greater than 10 µM; in assay [1] it was greater than 10 µM; in assay [2] it was greater than 30 µM; in assay [3] it was greater than 30 µM; in assay [4], greater than 30 µM; in assay [6], greater than 30 µM.

In the case of `CCc1nn(CCCN2CCN(c3cccc(Cl)c3)CC2)c(=O)n1CCOc1ccccc1` [NEFAZODONE], the half-maximal activity concentration (AC50) in assay [5] is 0.833 µM; in assay [1], greater than 10 µM; in assay [2], greater than 30 µM; in assay [3], 7.6 µM; in assay [4] it was 23.9 µM; in assay [6], 3.8 µM.

`C#C[C@]1(O)CC[C@H]2[C@@H]3CCc4cc(O)ccc4[C@H]3CC[C@@]21C` [ETHINYL ESTRADIOL]: the half-maximal activity concentration (AC50) in assay [5] is greater than 10 µM; in assay [1] it was greater than 10 µM; in assay [7], greater than 30 µM; in assay [8], greater than 30 µM; in assay [2], greater than 30 µM; in assay [4] it was 15 µM. In assay [6], this compound came in with an AC50 greater than 30 µM.

`CCCS(=O)(=O)Nc1ccc(F)c(C(=O)c2c[nH]c3ncc(-c4ccc(Cl)cc4)cc23)c1F` [VEMURAFENIB]: the concentration at half-maximal activity (AC50) in assay [1], in assay [2], in assay [3] and in assay [4] was greater than 30 µM in each case.

`CCN(CC)CCNC(=O)c1cc(Cl)c(N)cc1OC` [METOCLOPRAMIDE]: the AC50 in assay [5] is greater than 10 µM; in assay [1], greater than 10 µM; in assay [2] it was greater than 30 µM; in assay [4] it was greater than 30 µM; in assay [6], greater than 30 µM.

Turning to `CN(C)CCCN1c2ccccc2CCc2ccc(Cl)cc21` [CLOMIPRAMINE], the concentration at half-maximal activity (AC50) in assay [5] was 0.0445 µM; in assay [1], greater than 10 µM; in assay [8] it was 5.33 µM; in assay [6], greater than 10 µM.

Regarding `OCc1cc([C@@H](O)CNCCCCCCOCCOCc2c(Cl)cccc2Cl)ccc1O` [VILANTEROL], in assay [6], the AC50 was greater than 30 µM.

Turning to `CC(C(=O)O)c1ccc(C(=O)c2cccs2)cc1` (centres undefined) [SUPROFEN], the concentration at half-maximal activity (AC50) in assay [5] was greater than 10 µM; in assay [1], greater than 10 µM; in assay [2], greater than 10 µM; in assay [4] it was greater than 10 µM; in assay [6], greater than 30 µM.

On to `NS(=O)(=O)c1cc2c(cc1Cl)NCNS2(=O)=O` [HYDROCHLOROTHIAZIDE], for which the AC50 in assay [5] was greater than 10 µM; in assay [1], greater than 10 µM; in assay [2], greater than 30 µM; in assay [4] it was greater than 30 µM; in assay [6], greater than 10 µM.

With `COC(=O)[C@@H]1CC2=CC(=O)CC[C@]2(C)[C@@]23O[C@@H]2C[C@@]2(C)[C@@H](CC[C@@]24CCC(=O)O4)[C@H]13` [EPLERENONE], the AC50 was greater than 10 µM in assay [5]; greater than 10 µM in assay [1]; greater than 30 µM in assay [2]; greater than 30 µM in assay [4]; greater than 30 µM in assay [6].

As for `COC(=O)N[C@H](C(=O)N1CCC[C@H]1c1nc(-c2ccc(-c3ccc(-c4c[nH]c([C@@H]5CCCN5C(=O)[C@@H](NC(=O)OC)C(C)C)n4)cc3)cc2)c[nH]1)C(C)C`, the concentration at half-maximal activity (AC50) in assay [1], in assay [2], in assay [3] and in assay [4] was greater than 30 µM in each case.

Consider `NC(N)=Nc1nc(CSCCC(N)=NS(N)(=O)=O)cs1` [FAMOTIDINE], for which the AC50 is greater than 10 µM in assay [5]; greater than 10 µM in assay [1]; greater than 30 µM in assay [2]; greater than 30 µM in assay [4]; greater than 10 µM in assay [6].

For the compound `CC(N)Cc1ccccc1` (centres undefined) [AMPHETAMINE], the concentration at half-maximal activity (AC50) in assay [5] was greater than 10 µM; in assay [1], greater than 10 µM; in assay [2] it was greater than 30 µM; in assay [4], greater than 30 µM.

Consider `COC(=O)N[C@H](C(=O)N[C@@H](Cc1ccccc1)[C@@H](O)CN(Cc1ccc(-c2ccccn2)cc1)NC(=O)[C@@H](NC(=O)OC)C(C)(C)C)C(C)(C)C` [ATAZANAVIR], for which the AC50 in assay [5] is greater than 10 µM; in assay [1] it was greater than 10 µM; in assay [2], greater than 30 µM; in assay [4] it was greater than 30 µM; in assay [6], greater than 30 µM.

With `N[C@@H](C(=O)N[C@@H]1C(=O)N2C(C(=O)O)=C(Cl)CS[C@H]12)c1ccccc1` [CEFACLOR ANHYDROUS], the AC50 in assay [2] and in assay [3] was greater than 30 µM throughout.

In assay [6], `CC(C)Cc1ccc(CC(=O)O)cc1` [IBUFENAC] showed an AC50 greater than 30 µM.

For the compound `Cc1ccc(C(=O)c2cc(O)c(O)c([N+](=O)[O-])c2)cc1` [TOLCAPONE], the AC50 was 14.6 µM in assay [5]; greater than 10 µM in assay [1]; greater than 10 µM in assay [2]; greater than 10 µM in assay [4]; greater than 30 µM in assay [6].

For `CCOC(=O)[C@H](CCc1ccccc1)N[C@@H](C)C(=O)N1CCC[C@H]1C(=O)O`, the AC50 in assay [5] is greater than 10 µM; in assay [1], greater than 10 µM; in assay [2] it was greater than 30 µM; in assay [4], greater than 30 µM; in assay [6], greater than 10 µM.

`NC(=O)c1ncn([C@@H]2O[C@H](CO)[C@@H](O)[C@H]2O)c1O` [MIZORIBINE]: the concentration at half-maximal activity (AC50) in assay [2] and in assay [3] was greater than 30 µM in each case.

Regarding `C[C@@H]1O[C@@H]1P(=O)(O)O` [FOSFOMYCIN], the concentration at half-maximal activity (AC50) in assay [5] was greater than 10 µM; in assay [1], greater than 10 µM; in assay [2] it was greater than 10 µM; in assay [4], greater than 10 µM; in assay [6], greater than 30 µM.

Turning to `Cc1cccc(C)c1OCC(C)N` (centres undefined) [MEXILETINE], the AC50 in assay [2] and in assay [3] was greater than 30 µM throughout.

Consider `CC(=O)c1ccc2c(c1)N(CCCN1CCN(CCO)CC1)c1ccccc1S2` [ACETOPHENAZINE], for which the concentration at half-maximal activity (AC50) in assay [6] is greater than 30 µM.

In assay [6], `CC(C)NNC(=O)c1ccncc1` [IPRONIAZID] registered an AC50 greater than 30 µM.

Take `CC(C)(C(=O)c1cccnc1)c1cccnc1` [METYRAPONE]: the AC50 was greater than 10 µM in assay [5]; greater than 10 µM in assay [1]; greater than 10 µM in assay [2]; greater than 10 µM in assay [4]; greater than 30 µM in assay [6].

The compound `CN1CCCC(n2nc(Cc3ccc(Cl)cc3)c3ccccc3c2=O)CC1` (centres undefined) [AZELASTINE] gave a half-maximal activity concentration (AC50) in assay [6] of 23 µM.

Consider `CCC[C@@H]1C[C@@H](C(=O)N[C@@H]([C@H]2O[C@H](SC)[C@H](O)[C@@H](O)[C@H]2O)[C@H](C)Cl)N(C)C1` [CLINDAMYCIN], for which the AC50 is 3.42 µM in assay [5]; greater than 10 µM in assay [1]; greater than 30 µM in assay [2]; greater than 30 µM in assay [4]; greater than 30 µM in assay [6].

As for `CC[C@H](C)C(=O)O[C@H]1C[C@H](O)C=C2C=C[C@H](C)[C@H](CC[C@@H](O)C[C@@H](O)CC(=O)O)[C@H]21` [PRAVASTATIN], the concentration at half-maximal activity (AC50) in assay [5] was greater than 10 µM; in assay [1] it was greater than 10 µM; in assay [6], greater than 30 µM.

For the origin of these results see ChEMBL document CHEMBL5291721, “A preclinical secondary pharmacology resource illuminates target-adverse drug reaction associations of marketed drugs” (Nat Commun, 2023).
